According to patent publication US8440639B2, “Combination compositions for reducing intraocular pressure” (Inotek Pharmaceuticals Corporation, priority 2010, dated 2013):
Where a name gives a salt, the structure may show the parent alone.

Target: T1, A1 receptor (Homo sapiens, UniProt P30542)
T1 sequence (P30542 1-326): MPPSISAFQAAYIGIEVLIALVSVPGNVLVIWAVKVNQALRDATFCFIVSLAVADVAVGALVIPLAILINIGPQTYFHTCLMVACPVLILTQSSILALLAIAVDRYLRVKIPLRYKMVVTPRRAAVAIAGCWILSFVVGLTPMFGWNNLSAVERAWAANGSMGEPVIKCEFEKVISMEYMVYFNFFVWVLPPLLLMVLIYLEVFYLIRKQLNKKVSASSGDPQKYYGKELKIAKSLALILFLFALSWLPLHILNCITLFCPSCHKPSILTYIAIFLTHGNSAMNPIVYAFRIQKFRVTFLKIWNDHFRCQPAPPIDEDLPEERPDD
Assay: Adenosine A1 receptor affinity (Ki potency)
Format: binding
Excerpt: As used herein, the term “A1 agonist” refers to an A1 agonist that has an affinity to the A1 receptor while simultaneously having a lower affinity for the A2 and A3 adenosine receptors.

Row | SMILES | Ki
1 | O=S(=O)(O)OC[C@H]1O[C@@H](n2cnc3c(NC4CCCC4)ncnc32)[C@H](O)[C@@H]1O [Compound C, sodium((2R,3S,4R,5R)-5-(6-(cyclopentylamino)-9H-purin-9-yl)-3,4-dihydroxytetrahydrofuran-2-yl)methyl sulfate] | 4.05 nM
2 | O=[N+]([O-])OC[C@H]1O[C@@H](n2cnc3c(NC4CCOC4)ncnc32)[C@H](O)[C@@H]1O (stereo partly drawn) [Compound D, ((2R,3S,4R,5R)-3,4-dihydroxy-5-(6-(tetrahydrofuran-3-ylamino)-9H-purin-9-yl)tetrahydrofuran-2-yl)methyl nitrate] | 10.6 nM
3 | O=[N+]([O-])OC[C@H]1O[C@@H](n2cnc3c(NC4CCCCC4)ncnc32)[C@H](O)[C@@H]1O [Compound E, ((2R,3S,4R,5R)-5-(6-(cyclohexylamino)-9H-purin-9-yl)-3,4-dihydroxytetrahydrofuran-2-yl)methyl nitrate] | 1.32 nM
4 | O=[N+]([O-])OC[C@H]1O[C@@H](n2cnc3c(NC4CC5CCC4C5)ncnc32)[C@H](O)[C@@H]1O (stereo partly drawn) [Compound F, ((2R,3S,4R,5R)-5-(6-(bicycle-[2.2.1]-heptan-2-ylamino)-9H-purin-9-yl)-3,4-dihydroxytetrahydrofuran-2-yl)methyl nitrate] | 1.47 nM
5 | O=S(=O)(O)OC[C@H]1O[C@@H](n2cnc3c(NC4CCCCC4)nc(Cl)nc32)[C@H](O)[C@@H]1O [Compound G, sodium((2R,3S,4R,5R)-5-(2-chloro-6-(cyclohexylamino)-9H-purin-9-yl)-3,4-dihydroxytetrahydrofuran-2-yl)methyl sulfate] | 1.36 nM
